Reference: patent publication US11077120B2, “Prostaglandin receptor EP2 antagonists, derivatives, compositions, and uses related thereto” (Emory University, priority 2014, dated 2021)
Converted amounts (≈) assume the structure as drawn. Like-named read-outs stand apart in the source and are kept apart here.

Experiments:
[1] = aqueous solubility by nephelometry; conditions: for aqueous solubility (in words): PBS buffer (pH 7.4) with 1% DMSO, nephelometry
human EP2 receptors = biological target: T1, human EP2 receptors (Homo sapiens, UniProt P43116); assay: cell-based cAMP TR-FRET assay, rightward shift of PGE2 concentration response curve (Schild KB), EP2; conditions: for mechanism of antagonism of EP2: Schild regression analysis
T1 construct: expressed in transfected cells
T1 sequence (P43116 whole entry): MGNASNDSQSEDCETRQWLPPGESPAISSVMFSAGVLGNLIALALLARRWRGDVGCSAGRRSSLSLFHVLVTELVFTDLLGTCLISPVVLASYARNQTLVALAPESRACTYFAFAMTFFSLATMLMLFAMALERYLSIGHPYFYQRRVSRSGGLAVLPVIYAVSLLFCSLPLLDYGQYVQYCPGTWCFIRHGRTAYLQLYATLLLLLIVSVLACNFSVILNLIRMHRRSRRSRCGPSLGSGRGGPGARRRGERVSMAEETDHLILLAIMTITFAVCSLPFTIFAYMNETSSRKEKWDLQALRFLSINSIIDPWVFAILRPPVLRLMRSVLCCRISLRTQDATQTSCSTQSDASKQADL
Description: KB value indicates the antagonist concentration required for a twofold rightward shift in the PGE2 dose-response curve. Thus, a lower KB value indicates a higher inhibitory potency.
(§1) The synthesis was carried out starting from commercially available 2-methyl indole or 2-trifluoromethyl indoles (11a-c), which on treatment with bromoacetonitrile provided intermediates (12a-c), which then were subjected to lithium aluminum hydride to reduce cyanide to amines. […] Synthesized derivatives were tested by using a cAMP-derived TR-FRET assay, at single concentration (1 μM) to observe a rightward shift of PGE2 (an EP2 agonist) concentration response curve in a C6G cell line that overexpresses human EP2 receptors.
A lower KB value indicates a higher inhibitory potency.
(§2) Intracellular cAMP was measured with a cell-based homogeneous time-resolved fluorescence resonance energy transfer (TR-FRET) method (Cisbio Bioassays). […] Endogenous cAMP produced by cells competes with labeled cAMP for binding to the cAMP antibody and thus reduces the FRET signal. Cells stably expressing human DP1, EP2, EP4, or IP receptors were seeded into 384-well plates in 30 μl complete medium (4,000 cells/well) and grown overnight. The medium was carefully withdrawn and 10 μl Hanks' Buffered Salt Solution (HBSS) (Hyclone) containing 20 μM rolipram was added into the wells to block phosphodiesterases. The cells were incubated at room temperature for 0.5-1 h and then treated with vehicle or test compound for 10 min before addition of increasing concentrations of appropriate agonist: BW245C for DP1, PGE2 for EP2 and EP4, or iloprost for IP. The cells were incubated at room temperature for 40 min, then lysed in 10 μl lysis buffer containing the FRET acceptor cAMP-d2 and 1 min later another 10 μl lysis buffer with anti-cAMP-Cryptate was added. After 60-90 min incubation at room temperature, the FRET signal was measured by an Envision 2103 Multilabel Plate Reader (PerkinElmer Life Sciences) with a laser excitation at 337 nm and dual emissions at 665 nm and 590 nm for d2 and Cryptate (50 s delay), respectively. The FRET signal was expressed as: F665/F590×10^4.

in vitro = conditions: rat
Description: (§4) CC50 are average one measurement run in triplicate.
(§5) Several of compounds were examined against EP4 and IP receptors at single concentration of 10 μM.

human DP1 receptors = biological target: T2, human DP1 receptors (Homo sapiens, UniProt Q13258); assay: cell-based cAMP TR-FRET assay, DP1 (agonist BW245C); conditions: Table 2; for Kb: read-out: KB DP1
T2 construct: expressed in transfected cells
T2 sequence (Q13258 1-359): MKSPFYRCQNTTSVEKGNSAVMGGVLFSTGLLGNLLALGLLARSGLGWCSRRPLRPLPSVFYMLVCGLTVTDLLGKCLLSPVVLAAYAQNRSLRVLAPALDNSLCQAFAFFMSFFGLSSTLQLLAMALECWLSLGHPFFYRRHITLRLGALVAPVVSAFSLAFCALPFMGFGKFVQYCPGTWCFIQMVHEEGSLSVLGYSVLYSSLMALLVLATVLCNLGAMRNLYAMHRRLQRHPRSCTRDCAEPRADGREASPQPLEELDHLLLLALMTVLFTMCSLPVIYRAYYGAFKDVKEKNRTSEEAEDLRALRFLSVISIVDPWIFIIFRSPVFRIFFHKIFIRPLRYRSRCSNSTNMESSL
Description: as §1
as §2, with “After 60-90 min incubation at room temperature, the FRET signal was measured by an Envision 2103 Multilabel Plate Reader (PerkinElmer Life Sciences) with a laser excitation at 337 nm and dual emissions at 665 nm and 590 nm for d2 and Cryptate (50 s delay), respectively.” left out

human EP4 receptors = biological target: T3, human EP4 receptors (Homo sapiens, UniProt P35408); assay: cell-based cAMP TR-FRET assay, EP4 (agonist PGE2); conditions: for Selective Index EP4/EP2 / potency estimated from few doses: Table 2; for potency estimated from few doses: extrapolated Schild KB from single concentration of 10 μM
T3 construct: expressed in transfected cells
T3 sequence (P35408 whole entry): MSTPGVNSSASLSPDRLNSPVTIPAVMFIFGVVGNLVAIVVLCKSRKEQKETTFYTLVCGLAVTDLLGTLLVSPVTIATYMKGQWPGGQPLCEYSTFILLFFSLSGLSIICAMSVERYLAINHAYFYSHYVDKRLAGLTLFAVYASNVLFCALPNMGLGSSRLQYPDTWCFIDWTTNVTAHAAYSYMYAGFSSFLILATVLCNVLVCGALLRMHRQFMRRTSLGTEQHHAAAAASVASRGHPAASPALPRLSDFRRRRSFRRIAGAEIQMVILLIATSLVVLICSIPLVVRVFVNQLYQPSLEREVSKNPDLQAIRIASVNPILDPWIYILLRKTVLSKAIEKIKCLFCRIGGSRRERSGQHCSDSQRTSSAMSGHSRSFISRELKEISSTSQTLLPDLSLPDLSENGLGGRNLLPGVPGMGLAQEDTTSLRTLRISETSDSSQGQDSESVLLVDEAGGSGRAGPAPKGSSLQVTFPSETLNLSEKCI
Description: (§3) These derivatives were selected for testing against EP4 and IP receptors. Cell lines were created that overexpress EP4 receptors, or IP receptors on C6-glioma cells. A cAMP-derived TR-FRET assay was developed using agonists PGE2 (for EP4) and iloprost (for IP), similar to EP2 assay.
as §2

human IP receptors = biological target: T4, human IP receptors (Homo sapiens, UniProt P43119); assay: cell-based cAMP TR-FRET assay, IP (agonist iloprost); conditions: Table 2; for potency estimated from few doses: extrapolated Schild KB from single concentration of 10 μM
T4 construct: expressed in transfected cells
T4 sequence (P43119 whole entry): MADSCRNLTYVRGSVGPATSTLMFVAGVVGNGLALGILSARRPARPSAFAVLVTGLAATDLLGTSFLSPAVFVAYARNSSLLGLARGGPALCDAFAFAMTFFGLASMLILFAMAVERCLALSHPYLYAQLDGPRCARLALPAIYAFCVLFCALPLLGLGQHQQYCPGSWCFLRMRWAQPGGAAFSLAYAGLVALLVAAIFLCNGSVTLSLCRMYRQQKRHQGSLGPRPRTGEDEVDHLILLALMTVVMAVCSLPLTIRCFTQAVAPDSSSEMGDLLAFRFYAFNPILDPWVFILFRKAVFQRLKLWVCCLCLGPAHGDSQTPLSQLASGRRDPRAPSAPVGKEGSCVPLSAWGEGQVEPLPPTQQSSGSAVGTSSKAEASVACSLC
Description: as §3, §2

[2] = liver microsomal stability, mouse
[3] = liver microsomal stability, human
[4] = pH 7.4
[5] = mouse, in vivo
physchem = conditions: pH 7.4, aqueous buffer, kinetic from dmso stock
[6] = Table 1, Schild KB from single antagonist concentration 1 μM, average of 2-3 measurements in duplicate, read-out: EP2 KB
[7] = single concentration values, read-out: EP2 potency (Schild KB)
[8] = Table 3, PBS buffer (pH 7.4) with 1% DMSO by nephelometry

Description for C6-glioma cells: as §4, §5

For Cc1cc2ccccc2n1CCNC(=O)c1ccc(N2CCC(C(=O)O)CC2)cc1 [Compound 7n], the “aqueous solubility (in words)” value [1] was “high aqueous solubility” and the Kb (human EP2 receptors; [6]) was 0.0897 µM.
In the case of Cc1cc2ccccc2n1CCNC(=O)c1ccc(N2CCOCC2)c(F)c1 [Compound 7t], the CC50 (in vitro) is reported as over 500 µM, the “Selective Index (DP1/EP2)” value (human DP1 receptors) is reported as 85 and the “Therapeutic Index (CC50/EP2 KB)” value (C6-glioma cells; rat) is reported as >19,450. The “selectivity over EP4” value (human EP4 receptors; EP2 over EP4) was about 600 fold, the “Selective Index EP4/EP2” value (human EP4 receptors) was 565 and the potency estimated from few doses (human EP4 receptors) was 14.5 µM. For the same compound, the “Selective Index (IP/EP2)” value (human IP receptors) was 217 and the potency estimated from few doses (human IP receptors) was 5.6 µM.
For Cc1cc2ccccc2n1CCNC(=O)c1ccc(-c2nnn[nH]2)cc1 [Compound 7z], the CC50 (in vitro) was over 300 µM, the “aqueous solubility (in words)” value [1] was “high aqueous solubility” and the potency estimated from few doses (human EP4 receptors) was over 10000 µM. It also gave a potency estimated from few doses (human IP receptors) of over 10000 µM.
With Cc1cc2ccccc2n1CCNC(=O)c1ccc2c(c1)n(C)c(=O)n2C [Compound 8a, 1,3-Dimethyl-N-(2-(2-methyl-1H-indol-1-yl)ethyl)-2-oxo-2,3-dihydro-1H-benzo[d]imidazole-5-carboxamide] the “Selective Index (DP1/EP2)” value (human DP1 receptors) was 300, the Kb (human DP1 receptors) was 6.29 µM and the CC50 (C6-glioma cells; rat) was 154 µM. For the same compound, the “Therapeutic Index (CC50/EP2 KB)” value (C6-glioma cells; rat) was 7,370, the “concentration showing an effect on cell viability” value (C6-glioma cells; rat) was over 100 µM and the Kb (human EP2 receptors; [6]) was 0.0209 µM. For the same compound, the “Selective Index EP4/EP2” value (human EP4 receptors) was 1730, the potency estimated from few doses (human EP4 receptors) was 36.1 µM and the “Selective Index (IP/EP2)” value (human IP receptors) was 1200. It also gave a potency estimated from few doses (human IP receptors) of 25.2 µM.
For CCN(CC)c1ccc(C(=O)NCCc2c(C)[nH]c3ccccc23)cc1 [Compound 9a, 4-(Diethylamino)-N-(2-(2-methyl-1H-indol-3-yl)ethyl)benzamide], the CC50 (in vitro) was over 500 µM, the “Selective Index (DP1/EP2)” value (human DP1 receptors) was 1374 and the Kb (human DP1 receptors) was 9.48 µM. For the same compound, the “Therapeutic Index (CC50/EP2 KB)” value (C6-glioma cells; rat) was >72,460, the “mechanism of antagonism of EP2” value (human EP2 receptors) was “competitive” and the Kb (human EP2 receptors; [6]) was 0.0069 µM. The Kb (human EP2 receptors; [7]) was about 0.01 µM, the “Selective Index EP4/EP2” value (human EP4 receptors) was 6,945 and the potency estimated from few doses (human EP4 receptors) was 48 µM. For the same compound, the potency estimated from few doses (human IP receptors) was over 10000 µM.
With COc1cc(/C=C/C(=O)NCCn2c(C)cc3ccccc32)cc(OC)c1OC [Compound 15a] the “% of Parent Compound Remaining at 60 min vs. T = 0 min, Mouse Liver Microsomes” value ([2]; 1 μM) was 0.2%, the “% of Parent Compound Remaining at 60 min vs. T = 0 min, Mouse Liver Microsomes” value ([2]; 10 μM) was 4.8% and the “% remaining at 60 minutes in mouse liver microsomes” value ([2]; at 1 μM concentration) was 0.2%. For the same compound, the “% of Parent Compound Remaining at 60 min vs. T = 0 min, Human Liver Microsomes” value ([3]; 1 μM) was 0.1%, the “% of Parent Compound Remaining at 60 min vs. T = 0 min, Human Liver Microsomes” value ([3]; 10 μM) was 10.6% and the Solubility [1, 8] was 45 µM (≈ 17.8 µg/mL). It also gave a CC50 (C6-glioma cells; read-out: Cytotoxicity (CC50), Table 4) of 172 µM.
COc1cc(/C=C/C(=O)NCCn2c(CN3CCOCC3)cc3ccccc32)cc(OC)c1OC [Compound 15l] gave a Solubility [1, 8] of 91 µM (≈ 43.6 µg/mL).
With COc1cc(/C=C/C(=O)NCCn2c(CNC3CCN(C)CC3)cc3ccccc32)cc(OC)c1OC [Compound 15m] the Solubility [1, 8] was 180 µM (≈ 91.2 µg/mL).
For Cc1cc2ccccc2n1CCNC(=O)/C=C/c1ccc(OCCO)c(OCCO)c1 [Compound 16a, (E)-3-(3,4-bis(2-hydroxyethoxy)phenyl)-N-(2-(2-methyl-1H-indol-1-yl)ethyl)acrylamide], the Solubility [4] was 153 µM (≈ 64.9 µg/mL), the C-max ([5]; ip, 5 mg/kg) was 1510 ± 142 ng/mL and the “T1/2 (plasma)” value ([5]; ip, 5 mg/kg) was 1.49 h. The C-max ([5]; po, 10 mg/kg) was 128 ± 23 ng/mL, the “T1/2 (plasma)” value ([5]; po, 10 mg/kg) was 1.44 h and the “mechanism of antagonism of EP2” value (human EP2 receptors) was “competitive”.
Compound O=C(/C=C/c1ccc(OCCO)c(OCCO)c1)NCCn1c(C(F)(F)F)cc2ccccc21 [Compound 16b] has a Solubility [4] of 67 µM (≈ 32.1 µg/mL) and a Solubility (physchem) of 67 µM (≈ 32.1 µg/mL).
In the case of Cc1[nH]c2ccccc2c1CCNC(=O)/C=C/c1ccc(OCCO)c(OCCO)c1 [Compound 16c, (E)-3-(3,4-bis(2-hydroxyethoxy)phenyl)-N-(2-(2-methyl-1H-indol-3-yl)ethyl)acrylamide], the “% of Parent Compound Remaining at 60 min vs. T = 0 min, Mouse Liver Microsomes” value ([2]; 1 μM) is reported as 7.1%, the “% of Parent Compound Remaining at 60 min vs. T = 0 min, Mouse Liver Microsomes” value ([2]; 10 μM) is reported as 19.3% and the “% of Parent Compound Remaining at 60 min vs. T = 0 min, Human Liver Microsomes” value ([3]; 1 μM) is reported as 58.5%. The “% of Parent Compound Remaining at 60 min vs. T = 0 min, Human Liver Microsomes” value ([3]; 10 μM) was 70.4%, the “aqueous solubility (in words)” value [1] was “very soluble” and the Solubility [1, 8] was 235 µM (≈ 99.8 µg/mL).
Cc1[nH]c2ccccc2c1CCNC(=O)/C=C/c1ccc(OCCO)cc1 [Compound 16d] gave a CC50 (in vitro) of 81.7 µM, a Solubility ([1]; PBS buffer, pH 7.4, aqueous buffer, kinetic from dmso stock) of 68 µM (≈ 24.8 µg/mL) and a Kb (human EP2 receptors; Table 3, Schild KB from single concentration 1 μM, read-out: EP2 KB) of 0.0136 µM. For the same compound, the Kb (human EP2 receptors; Table 4, read-out: KB EP2) was 0.0136 µM and the Kb (human EP2 receptors; [7]) was 0.0114 to 0.0136 µM.
For Cc1cc2ccccc2n1CCNC(=O)/C=C/c1ccc(OCCCO)cc1 [Compound 16e], the Solubility [1, 8] was 66 µM (≈ 25 µg/mL).
